Laboratory results reported in PMC11091888, “Evaluation of Fusobacterium nucleatum Enoyl-ACP Reductase (FabK) as a Narrow-Spectrum Drug Target” (ACS Infectious Diseases, 2024).
≈ marks a conversion by molar mass, not a printed value. Where two headings read alike, the source gives them in different places.

Legend:
[1] = test system: E. faecalis FA2–2; assay: MIC against wild-type E. faecalis FA2-2 (FabI and FabK); format: cell-based, Enterococcus faecalis; details: E. faecalis FA2-2, possesses both FabI and FabK
Procedure: (§1) Compounds were twofold serially diluted (100–0.2 μg/mL) across a 96-well plate in 100 μL of media used for the specific organism (Table S4). For anaerobes, plates were incubated anaerobically at 37 °C for 1 h and then inoculated with approximately 10^5 to 10^6 CFU/well. Plates were incubated at 37 °C for up to 48 h, and MICs were read by visual inspection.

[2] = test system: E. faecalis FA2–2ΔfabI; assay: MIC against E. faecalis FA2-2 fabK+ (ΔfabI, possesses only FabK); format: cell-based, Enterococcus faecalis; details: for MIC Ef fabK+: E. faecalis FA2-2 ΔfabI, possesses only FabK
Procedure: as §1

[3] = test system: E. faecalis FA2–2ΔfabK; assay: MIC against E. faecalis FA2-2 fabI+ (ΔfabK, possesses only FabI); format: cell-based, Enterococcus faecalis; details: E. faecalis FA2-2 ΔfabK, possesses only FabI
Procedure: as §1

[4] = test system: F. nucleatum 23726; assay: MIC against F. nucleatum 23726; format: cell-based, Fusobacterium nucleatum; details: three biological replicates; for MIC Fn 23726: F. nucleatum 23726 wild-type
Procedure: as §1

[5] = test system: CdFabK; design: method as in PMID 37224699; details: previously reported, cited from earlier work
[6] = target: FnFabK (Fusobacterium nucleatum subsp. nucleatum, UniProt Q8RGV3); assay: biochemical; details: for IC50: IC50 against FnFabK
Procedure: Incubation lasted for a total of 10 min before the addition of crotonyl-CoA substrate, and the reaction was initiated by the addition of NADH for a final assay volume of 100 μL. The oxidation of NADH to NAD+ was measured by tracking fluorescence (340 nm/460 nm) with a Biotek Synergy H1 microplate reader in 15 s intervals for a total of 10 min to monitor the rate of reaction. The reaction was conducted in Greiner Bio-One 384-well μClear Bottom Polystyrene Microplates. […] Measurements were conducted in triplicate, and IC50’s were calculated via GraphPad Prism 9.1.2 using four-parameter logistic (Hill) curve analysis using equation Y = bottom + (top – bottom)/[1 + 10 (Log IC50 – X) × Hill Slope], where X is the logarithm of the dose and Y is the response. The assay concentrations of the cofactor, NADH, and substrate, crotonyl-CoA, were also determined via GraphPad Prism 9.1.2 using the substrate inhibition model to determine Km(app).

[7] = Cytotoxicity against Vero cells (resazurin viability); format: cell-based; details: monkey, Vero epithelial cells, maximum tested concentration 100 μg/mL
Procedure: This was done as described[36] using colorectal carcinoma HCT116 and Vero epithelial cells cultured at 37 °C in 5% CO2 in Dulbecco’s modified Eagle’s medium (DMEM) with 4.5 g/L glucose and L-glutamine. The medium was supplemented with 10% v/v FetalGro (Rocky Mountain Biologicals). Approximately 25,000/well were aliquoted into black 96-well plates (Greiner Bio-One) and incubated overnight, before being resuspended in DMEM supplemented with 20% Gibco KnockOut Serum Replacement (Thermo Fisher Scientific). Compounds (100–1.6 μg/mL) were then added to the cells and incubated for 24 h at 37 °C and 5% CO2. Cell viability was analyzed using resazurin as described.[36]

[8] = test system: F. nucleatum 23726 overexpression strains; assay: MIC against F. nucleatum 23726 transformed with empty vector, fabK or fabX under ATc-inducible promoter; format: cell-based, Fusobacterium nucleatum; details: Fusobacterium nucleatum
Procedure: The transformation of F. nucleatum 23726 was performed via electroporation as previously described,[41] except that Columbia broth was used. (i) Antisense vector: F. nucleatum gene silencing vector, pHFK2, was developed by inserting the ATc inducible paired-termini antisense sequences from the clostridial vector pMSPT into pCWU6, a F. nucleatum vector.[56] pCWU6 was amplified by PCR (CloneAmp polymerase) and recombined with the BamHI and KpnI fragments of pMSPT containing the Tet promoter and paired-termini sequences.[26] Antisense nucleotides targeting either 50 bp upstream and downstream of the fabK start codon (FabKAS1) or 25 bp upstream and 75 bp downstream (FabKAS2) were cloned into SphI and XhoI restriction sites of pHFK2. (ii) Complementation vectors: these were generated by PCR amplifying the fabK promoter and gene and introducing KpnI and HindIII restriction sites at 5′ and 3′ ends, respectively. Purified PCR amplicons were inserted into the KpnI and HindIII sites of pCWU6. (iii) Overexpression vectors: the corresponding gene, fabK or fabX, was amplified via PCR, introducing HindIII or SacI restriction sites to the 5′ end, respectively. BamHI restriction sites were introduced to the 3′ end of both. Purified PCR amplicons were inserted into the respective restriction sites of pHFK2. (iv) Allelic exchange vector: vector, pCWU8-FabK, was generated using a previously described protocol,[41],[56] whereby 1-kb regions upstream and downstream of fabK were cloned into the suicide vector pCWU8 using a Gibson Assembly Cloning Kit (New England Biolabs). The recombinant vector was transformed into strain F. nucleatum 23726ΔgalK, and successful integrants were collected that were resistant to thiamphenicol (5 μg/mL). Since the suicide vector expresses GalK, which is toxic in the presence of 2-deoxy-D-galactose (2-DG), the compound 2-DG (0.25% w/v) was added to counter-select for mutants that underwent a second homologous recombination. Ten resulting colonies were then tested for deletion of fabK via PCR, using primers in Table S7. The experiment was independently performed twice for a total of 20 colonies screened for fabK deletion. All experiments were done anaerobically at 37 °C in tryptic soy broth supplemented with 1% w/v peptone and 0.25% w/v autoclaved L-cysteine hydrochloride (TSPC) or TSPC agar with thiamphenicol or 2-DG.
as §1

[9] = test system: F. nucleatum 23726; assay: Growth in FAS-II inhibitor with or without exogenous fatty acids; format: cell-based, Fusobacterium nucleatum; details: fatty acid mixture of Table S2
Procedure: To plates containing twofold serial dilutions of compounds, exponential phase cultures were added to a final OD600nm of 0.1. Plates containing F. nucleatum in Columbia broth were incubated at 37 °C inside of a Tecan Infinite 200 Pro, which was inside an anaerobic chamber; growth kinetics for Streptococcus spp. in brain heart infusion broth were done aerobically in the same Tecan instrument.

Chain of FnFabK (Q8RGV3 entry or part of it): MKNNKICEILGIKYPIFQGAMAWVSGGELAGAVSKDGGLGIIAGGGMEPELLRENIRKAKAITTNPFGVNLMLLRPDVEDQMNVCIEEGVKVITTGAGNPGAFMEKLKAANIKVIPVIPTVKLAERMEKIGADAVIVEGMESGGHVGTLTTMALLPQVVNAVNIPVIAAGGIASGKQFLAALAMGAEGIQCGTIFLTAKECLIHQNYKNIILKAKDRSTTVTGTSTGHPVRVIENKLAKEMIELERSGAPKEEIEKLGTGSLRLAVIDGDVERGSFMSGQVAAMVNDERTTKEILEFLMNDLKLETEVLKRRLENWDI

Structure (SMILES)	MIC Ef wild-type [1]	MIC Ef fabK+ [2]	MIC Ef fabI+ [3]	MIC Fn 23726 [4]	also measured
O=C(NCc1nc(-c2ccc(Br)cc2)c[nH]1)Nc1nc2ccc(F)cc2s1 [Compound 670]	100 µg/mL (≈ 224 µM)	<0.1 µg/mL	100 µg/mL (≈ 224 µM)	100 µg/mL (≈ 224 µM)	
O=C(NCc1nc(-c2ccc(Br)cc2)c[nH]1)Nc1nc2ccc(Br)cc2s1 [Compound 671]	50 µg/mL (≈ 98.6 µM)	<0.1 µg/mL	50 µg/mL (≈ 98.6 µM)	25 µg/mL (≈ 49.3 µM)	
O=C(NCc1nc(-c2ccc(Br)cc2)c[nH]1)Nc1nc2c(F)cc(F)cc2s1 [Compound 674]	100 µg/mL (≈ 215 µM)	<0.1 µg/mL	100 µg/mL (≈ 215 µM)	100 µg/mL (≈ 215 µM)	
O=C(NCc1nc2ccccc2[nH]1)Nc1ncc(Sc2ccccn2)s1 [Compound 675]	100 µg/mL (≈ 261 µM)	0.8 µg/mL (≈ 2.09 µM)	100 µg/mL (≈ 261 µM)	100 µg/mL (≈ 261 µM)	
O=C(NCc1nc(-c2ccccc2)n[nH]1)Nc1ncc(Sc2ccccn2)s1 [Compound 676]	100 µg/mL (≈ 244 µM)	0.2 µg/mL (≈ 0.488 µM)	100 µg/mL (≈ 244 µM)	100 µg/mL (≈ 244 µM)	
O=C(NCc1nc(-c2ccc(Br)cc2)c[nH]1)Nc1ncc(Sc2ncccn2)s1 [Compound 679]	100 µg/mL (≈ 205 µM)	<0.1 µg/mL	100 µg/mL (≈ 205 µM)	6.3 µg/mL (≈ 12.9 µM)	
O=C(NCc1nc(-c2ccc(Br)cc2)c[nH]1)Nc1ncc(Sc2ccc3ccccc3n2)s1 [Compound 680]	100 µg/mL (≈ 186 µM)	<0.1 µg/mL	100 µg/mL (≈ 186 µM)	100 µg/mL (≈ 186 µM)	
O=C(NCc1nc(-c2ccc(Br)cc2)c[nH]1)Nc1ncc(Sc2ccc(Cl)cn2)s1 [Compound 682]	100 µg/mL (≈ 192 µM)	<0.1 µg/mL	100 µg/mL (≈ 192 µM)	3.1 µg/mL (≈ 5.94 µM)	
O=C(NCc1nc(-c2ccc(Br)cc2)c[nH]1)Nc1ncc(Sc2ncccc2C(F)(F)F)s1 [Compound 683]	100 µg/mL (≈ 180 µM)	<0.1 µg/mL	100 µg/mL (≈ 180 µM)	3.1 µg/mL (≈ 5.58 µM)	
O=C(NCc1nc(-c2ccc(Br)cc2)c[nH]1)Nc1ncc(Sc2ccc(C(F)(F)F)cn2)s1 [Compound 684]	100 µg/mL (≈ 180 µM)	<0.1 µg/mL	100 µg/mL (≈ 180 µM)	3.1 µg/mL (≈ 5.58 µM)	
O=C(NCc1nc(-c2ccc(Br)cc2)c[nH]1)Nc1nc2cc(Cl)ccc2s1 [Compound 689]	25 µg/mL (≈ 54 µM)	<0.1 µg/mL	25 µg/mL (≈ 54 µM)	6.3 µg/mL (≈ 13.6 µM)	
CCOc1ccc2sc(NC(=O)NCc3nc(-c4ccc(Br)cc4)c[nH]3)nc2c1 [Compound 690]	25 µg/mL (≈ 52.9 µM)	<0.1 µg/mL	25 µg/mL (≈ 52.9 µM)	25 µg/mL (≈ 52.9 µM)	
O=C(NCc1nc(-c2ccc(Br)cc2)c[nH]1)Nc1nc2ccccc2s1 [Compound 701]					IC50 against CdFabK, equivalent concentration [5]: 0.8 µg/mL; IC50 ([5]; read-out: IC50 against CdFabK): 1880 nM; MIC ([1]; Enterococcus faecalis, read-out: MIC Ef wild-type): 100 µg/mL (≈ 233 µM); MIC ([2]; Enterococcus faecalis, read-out: MIC Ef fabK+, E. faecalis FA2-2 ΔfabI, possesses only FabK): < 0.1 µg/mL; IC50 ([6]; equivalent concentration, conversion of the μM value): 10.7 µM; IC50 ([6]; purified FnFabK, three replicates): 10.6 µM; Hill coefficient (FnFabK inhibition) ([6]; four-parameter logistic fit): 1.06; MIC ([4]; Fusobacterium nucleatum, 23726, F. nucleatum 23726 wild-type, read-out: MIC Fn 23726): 1.6 µg/mL (≈ 3.74 µM)
O=C(NCc1nc(-c2ccc(Br)cc2)c[nH]1)Nc1ncc(Sc2ccc(Br)cc2)s1 [Compound 702]	100 µg/mL (≈ 177 µM)	<0.1 µg/mL	100 µg/mL (≈ 177 µM)	100 µg/mL (≈ 177 µM)	
O=C(NCc1nc(-c2ccc(Br)cc2)c[nH]1)Nc1ncc(Sc2nc3ccccc3s2)s1 [Compound 703]	100 µg/mL (≈ 184 µM)	<0.1 µg/mL	100 µg/mL (≈ 184 µM)	100 µg/mL (≈ 184 µM)	
COc1cccc2c1C(=O)c1c(O)c3c(c(O)c1C2=O)C[C@@](O)(C(=O)CO)C[C@@H]3O[C@H]1C[C@H](N)[C@H](O)[C@H](C)O1 [doxorubicin, reference compound]					IC50 at 24 h [7]: 8.1 ± 1 µg/mL (≈ 14.9 µM)
C=C/C(C)=C/[C@@]1(C)SC(=O)C(C)=C1O [thiolactomycin, reference compound]					MIC ([8]; read-out: MIC, FabK overexpression, induced): 3.9 µg/mL; MIC ([8]; read-out: MIC, FabK overexpression, uninduced): 7.8 µg/mL; MIC ([8]; read-out: MIC, FabX overexpression, induced): 3.9 µg/mL; MIC ([8]; read-out: MIC, FabX overexpression, uninduced): 7.8 µg/mL; MIC ([8]; read-out: MIC, empty vector, induced): 7.8 µg/mL; MIC ([8]; read-out: MIC, empty vector, uninduced): 7.8 µg/mL; Effect of exogenous fatty acids on growth inhibition of F. nucleatum [9]: did not rescue
